# Measurements published in paper PMC4862498, “PI4 Kinase Is a Prophylactic but Not Radical Curative Target in Plasmodium vivax-Type Malaria Parasites” (Antimicrobial Agents and Chemotherapy, 2016).
# “And” between values parts separate entries of the source, which are not always exact repeats. Identical values can stand only once. “Also recorded” adds a separate entry of the source.
# What was measured:
# [1] = test system: P. cynomolgi sporozoite-infected rhesus macaques (hypnozoites, relapse); experiment: Radical cure in P. cynomolgi sporozoite-infected rhesus macaques; type: in vivo, Plasmodium cynomolgi; settings: group PQ-RC
# Protocol: Sporozoites were harvested from P. cynomolgi-infected mosquitoes, washed with phosphate-buffered saline (PBS), and diluted to 100,000 sporozoites (spz)/ml in PBS. One-milliliter aliquots of sporozoites were prepared and injected into monkeys via intravenous (i.v.) injection.
# (§1) Monkeys were treated according to the schedule shown in Table 1 (stratification of treatment groups is given in the supplemental material). During treatment, monkeys were weighed daily and received the compound via gavage, followed by gastric feeding (weight change during treatment is shown in Table S6 in the supplemental material). Monkeys in the prophylaxis groups (groups 691-proph and 599-proph) were treated ∼20 min after the i.v. sporozoite injection. The other monkeys were treated when all the monkeys in the experiment (except those in the prophylaxis group) were blood-stage patent (at day 11 p.i.). To kill the blood-stage parasites, all monkeys received a 5-day treatment of 7.5 mg/kg of body weight of chloroquine (CQ) (intramuscular [i.m.] injection), during compound dosing. KDU691 was formulated in 0.5% methylcellulose and 0.5% Tween 80 in water. LMV599 was formulated as a solid dispersion in a solution containing 5.6% (wt/wt) Tween 80–44.4% hydroxypropyl methylcellulose (HPMC) E3–38.9% Soluplus–11.1% vitamin E D-alphatocopheryl polyethylene glycol 1000 succinate (TPGS).
# Parasitemia was closely monitored by thin-film analysis. Animals were trained to present for thigh pricks, which was followed by a reward. Thin-film slides were stained with 20% Giemsa stain, and at least 50 fields (±20,000 erythrocytes [RBCs]) were analyzed with a bright-field microscope (×1,200 magnification). As soon as all monkeys other than the prophylactic treatment groups were blood-stage positive, treatment was started as indicated above (Table 1). After the last day of compound dosing, the absence of blood-stage parasites was confirmed by thin smears. From day 23 p.i., monkeys were monitored daily for relapses. The KDU691 radical-cure (group 691-RC) treatment and control groups were monitored until the first relapse. The LMV599 control (group 599-C), radical-cure (group 599-RC), and PQ radical-cure (group PQ-RC) treatment groups were monitored until the second relapse or until day 100 p.i. (whichever came first). At the end of the study, monkeys that had relapsed received a 14-day primaquine treatment, with a final check 2 weeks after the last primaquine dose.
# P. cynomolgi sporozoite production
# A monkey was infected with […] P. cynomolgi M strain blood stage parasites, thawed from a first passage stock (i.e. blood stage parasites from a monkey infected with P. cynomolgi M strain sporozoites). For each batch of sporozoites needed, a single monkey was infected with P. cynomolgi blood stage parasites.
# At day 11 and 12 post infection 9 mL infected blood was collected into a Lithium-heparinised tube. The blood was kept at 38°C and fed approximately 500 three to five days old female Anopheles stephensi mosquitoes Sind-Kasur strain Nijmegen (Nijmegen University Medical Centre St Radboud, Department of Medical Microbiology) using a glass feeder system as described by Ponnudurai et al.. After the second bleed, the monkey was cured by three daily intramuscular injections of 7.5 mg/kg chloroquine, monitored for parasite clearance 24 days after chloroquine treatment and returned to colony.
# Mosquitoes were kept in climate chambers at 25 °C and 80% humidity and were fed 5% D -glucose on cotton pads daily. Seven days after feeding on the infected rhesus blood, oocyst numbers were determined in midguts of ten individuals, using 1% mercurochrome stain. Mosquitoes were given a second (uninfected) blood meal immediately afterwards to promote sporozoite maturation and invasion of the salivary glands. Sporozoites were isolated from the P. cynomolgi infected mosquitoes around day16 after the infected blood meal.
# In vivo monkey infection and treatment procedures […]
# [2] = test system: P. cynomolgi developing EEFs (liver schizonts) in primary rhesus hepatocytes; design: method as in PMID 24366744; settings: P. cynomolgi in vitro liver-stage assay; read-out: IC50 against developing EEFs; cited from earlier work
# [3] = test system: P. cynomolgi hypnozoites in primary rhesus hepatocytes; design: method as in PMID 24366744; settings: P. cynomolgi in vitro liver-stage assay; read-out: IC50 against hypnozoites; cited from earlier work
# [4] = Clinical chemistry, hematology, weight and clinical observation of treated monkeys; type: in vivo, rhesus macaques (Macaca mulatta)
# Protocol: as §1
# Blood samples were collected for clinical evaluation and pharmacokinetic (PK) analysis (see Table S2 in the supplemental material).
# When the first relapse was observed, monkeys of the KDU691 experiment were radically cured with primaquine (PQ)/CQ (oral administration of 1.8 mg/kg PQ for 14 days together with i.m. administration of 7.5 mg/kg CQ for the first five days of PQ treatment) to cure both blood stage and liver stage parasites, […]
# The monkeys of the LMV599/PQ experiment were cured with a five day CQ treatment (7.5 mg/kg, i.m. administration) at the first relapse and were monitored until the second relapse after which they were cured with CQ (7.5 mg/kg, intramuscular (i.m.) for five days) plus PQ (1.8 mg/kg for 14 days).
# Table S2: PK and clinical blood sampling schedule in monkeys.
# Groups are named 691 for KDU691 and 599 for LMV599 treatment groups, followed by -C for control group (no compound), -proph for prophylactic treatment (treated immediately after infection), and -RC for radical cure treatment (treated when blood stage positive). […]
# the face and chest areas were very yellow. Therefore the 691-RC group (treated from d11 to d15 pi) was monitored by daily clinical chemistry analysis during dosing to be compared with untreated 691-C. […]
# sampling of the single dose prophylaxis group at day 0, 1, 7 and 100. The lack of aberrant clinical […]
# as radical cure compound, during which also clinical sampling was performed daily. a: only clinical chemistry samples were taken. *: t = 24 sample was taken only on the 1st day of dosing.
# Group name Clin. chem PK sampling PK time points
# Hematology (h post dosing)
# 691-proph 1st and 5th day of dosing t = 0, 1, 4, 6 and 24*
# 691-RC Dailya 1st and 5th day of dosing t = 0, 1, 4, 6 and 24* […]
# 599-RC Daily 1st and 4th day of dosing t = 0, 1, 2, 4 and 24
# Clinical chemistry and hematology
# For the clinical analysis serum from 1 mL of clotted blood was analysed using the Cobas Integra 400 plus fully automated chemistry analyser. The following clinical parameters were determined: Alkaline phosphatase; Alanine Aminotransferase; Albumin: Aspartate aminotransfeasr; Bilirubin; Calcium; Cholesterol; Creatine kinase; Creatinine; C-reactive protein: Iron; Phosphate; Gamma-glutamyl transpeptidase; Glucose; Hemoglobin; Potassium; Lactate dehydrogenase; Sodium; Total protein; Urea Haematological parameters were determined from 1 mL EDTA-blood with a Sysmex XT-2000iV automated system. The following hematological parameters were determined: Basophilic granulocytes; Eosinophilic granulocytes; Erythrocytes; Hematocrit; Leucocytes; Leucocyte differentiation; Lymphocytes; Mean corpusculair hemoglobin; Mean corpusculair hemoglobin concentration; Mean corpusculair volume; Neutrophilic granulocytes; Red cell distribution width; Thrombocytes […]
# Liver tissue samples were excised, dipped in PBS, gently blotted with absorbent paper, dried, weighed and stored at -20 °C until further analysis. […]
# [5] = group PQ-RC, 1.8 mg/kg, % of weight at d0
smiles,measurement,setting,value
"COc1cc(NC(C)CCCN)c2ncccc2c1 (stereo not drawn) [PQ, primaquine]",Day p.i. to first relapse,"[1]; 1.8 mg/kg oral for 5 days from day 11 p.i. plus CQ, individual monkeys, ND = not detected up to day 100 p.i., 1.8 mg/kg",47 day p.i. and 68 day p.i.
same,animals radically cured,"[1]; 1.8 mg/kg oral for 5 days, monitored up to 100 days p.i., 1.8 mg/kg",two out of four; also recorded: two were completely cured
same,Day p.i. to second relapse,"[1]; 1.8 mg/kg oral for 5 days, individual monkeys, ND = not detected up to day 100 p.i.",100 day p.i.
same,"day p.i. to first relapse, mean ± SD of the relapsing animals","[1]; 1.8 mg/kg oral for 5 days, only two of the four animals relapsed, delay P = 0.000237",57.5 ± 14.8 day p.i.
same,Day p.i. to primary parasitemia,"[1]; individual monkeys, baseline, before dosing started",9 day p.i. and 10 day p.i. and 11 day p.i.
same,IC50,[2],370 nM
same,IC50,[3],840 nM
same,Weight change d1,[4]; [5],-0.8%
same,Weight change d2,[4]; [5],-1.2%
same,Weight change d3,[4]; [5],-2.6%
same,Weight change d4,[4]; [5],-2.9%
same,mean weight loss,"[4]; primaquine treatment, 1.8 mg/kg for 5 days, control 2.7%",2.9%
